Patent publication US10010538B2, “Use of anthelmintic agents against Dirofilaria immitis” (Intervet Inc., priority 2014, dated 2018)

Key:
L4 larvae of D. immitis = assay: microbe, parasite or virus in culture; assay type: cell-based; conditions: Dirofilaria immitis, 72 h, read-out: MIC100, lowest dose that results in complete loss of motility
D. immitis microfilariae = assay: Activity against D. immitis microfilariae (viability after 3 days incubation); assay type: cell-based; conditions: Dirofilaria immitis, in Canis lupus familiaris, 72 h, read-out: Microfilaricidal activity, half maximal effective concentration (EC50)

## O=C(CO[C@H]1CC[C@H](Nc2ccc([N+](=O)[O-])c(C(F)(F)F)c2)CC1)N1CCC(Nc2ccc(C(F)(F)F)cc2)CC1 [Example 267]
L4 larvae of D. immitis
  MIC: < 10 µM
D. immitis microfilariae
  EC50: < 10 µM

## O=C(CO[C@H]1CC[C@H](Nc2ccc([N+](=O)[O-])c(C(F)(F)F)c2)CC1)N1CCC(Oc2ccc(OC(F)(F)F)cc2)CC1 [Example 266]
L4 larvae of D. immitis
  MIC: < 10 µM
D. immitis microfilariae
  EC50: < 5 µM
